Here are results for 1 compound from patent US20210369691A1, “METHODS AND COMPOSITIONS FOR IMPROVING BONE MARROW HEMATOPOIETIC FUNCTIONS” (Sun Yat-Sen University, priority 2018, published 2021).

Structures are written as SMILES.

Common to all, as to assay type: in vivo, mice
One experiment relates to white blood cells. Nature of the experiment: White blood cell recovery after bone marrow transplantation. The conditions noted are these: 7-35 days after bone marrow transplantation; ABC294640 10 mg/kg every other day; vs solvent control. Here is the method: Twenty-five 8-week-old C57 mice (purchased from Laboratory Animal Center, Sun Yat-sen University) were selected and kept in a specific pathogen free (SPF) environment. 5 mice were randomly selected and sacrificed by cervical dislocation. Femurs and tibias were taken and the bone marrow was obtained from the bone marrow cavity with an 1 ml syringe. Bone marrow was dispersed to form a single cell suspension and lysed with red blood cell lysis buffer for 2 min to remove red blood cells, followed by filtering through a 70 μm filter screen to obtain a single cell suspension. The other 20 mice were treated with X-ray radiation at a dose of 900 cGy, and were injected with 400,000 of the prepared bone marrow single cell suspension via tail vein, respectively. Then, the recipient mice were divided evenly into 2 groups, and mice of the ABC294640 treatment group were subjected to intraperitoneal injection of ABC294640 every other day. Mice in the control group was injected with a solvent solution control (1:1 of physiological saline: PEG400) solution. ABC294640 was purchased from Selleck and dissolved in dimethyl sulfoxide (DMSO), and diluted with a mixture solution of polyethylene glycol 400 (PEG400) and physiological saline (1:1) to be administered at a dose of 10 mg/kg.
Preparation of SphK2 inhibitors was as described in Example 10. […]

The test system of the next experiment is hematopoietic stem cells. Nature of the experiment: Serial transplantation repopulation assay of bone marrow cells after 5FU and ABC294640 treatment. The text has this: FIG. 28. illustrates the quantification of functional HSCs by transplantation assay. 2×10^5 bone marrow cells from C57BL/6J mice after 5FU and ABC294640 or vehicle control treatment were transplanted into […] mice along with 2×10^5 recipient bone marrow cells. 1×10^6 bone marrow cells from primary or secondary recipient mice were transplanted into […] mice in secondary or tertiary recipients respectively. PB analysis for total engrafted donor cells at the indicated number of weeks after transplantation. FIG. 29. illustrates the percentage of donor-derived B, T and myeloid lineage cells at 16 weeks after transplantation. Repopulation analyses was also performed to investigate whether ABC294640 treatment functionally promotes HSC regeneration after chemotherapeutic stress.

A short description of experiment [1]: Survival after serial 5FU challenges every 7 days with ABC294640 every other day. The settings on record: vs control, FIG. 30. As to the method: FIG. 30. illustrates the survival of C57BL/6J mice after serious 5FU treatment every 7 days and ABC294640 treatment every other day (n=10 mice group).
Repopulation analyses was also performed to investigate whether ABC294640 treatment functionally promotes HSC regeneration after chemotherapeutic stress.

Where [2] appears, read: 16 weeks after transplantation, FIG. 29.
Setting [3] is: at 16 weeks, donor bone marrow after 5FU and ABC294640 vs solvent control, FIG. 28.

Consider `O=C(NCc1ccncc1)C12CC3CC(C1)CC(c1ccc(Cl)cc1)(C3)C2` [ABC294640, 3-(4-chloro-phenyl)-adamantane-1-carboxylic acid (pyridin-4-ylmethyl)-amide], for which, in the experiment with white blood cells, the “number of white blood cells in the peripheral blood” value is “significantly (*P<0.05, **P<0.01 and ***P<0.001) increased”. In addition, in the experiment on hematopoietic stem cells (setting [2]), the lymphopoiesis in recipients result is on record as “markedly promoted lymphopoiesis” and the “myeloid skewing in recipients” value is “suppressed myeloid skewing”. In the experiment on hematopoietic stem cells (setting [3]), the “increase of reconstitution, primary transplantation” value was “about 1.7 fold”; the “increase of reconstitution, secondary transplantation” value is “about 1.5 fold”; the “increase of reconstitution, tertiary transplantation” value was “about 1.9 fold”. For the same compound, in experiment [1], the survival entry was “notably increased survival”.
